Data on six compounds can be found in publication PMC9505734, “Design, Synthesis, and Evaluation of a Set of Carboxylic Acid and Phosphate Prodrugs Derived from HBV Capsid Protein Allosteric Modulator NVR 3-778” (Molecules, 2022).

Series [1] in a line: Cytotoxicity assay (WST, Cell Counting Kit-8). Type of series: cell-based. The conditions noted are these: human, Hep38.7-Tet cells, WST method (CCK-8); read-out: CC50: the concentration that kills 50% of Hep38.7-Tet cells. Here is the method: (§1) The target compounds N5-N8 were evaluated for their antiviral potency against HBV replication, as well as cytotoxicity in Hep38.7-Tet cells, which reproduces HBV replication from a chromosome-integrated HBV transgene under depletion of tetracycline from the medium. The 50% effective concentration (EC50) for anti-HBV activity, 50% cytotoxic concentration (CC50), and selectivity index (SI) calculated by CC50/EC50 ratio are shown in Table 1.
(§2) The WST assays were performed by using Cell Counting Kit-8 (CCK-8) (DOJINDO) according to the manufacturer’s protocol. CCK-8 solution was added to the cells, which were incubated at 37 °C for 15 min and the absorbance at 450 nm was measured.

Series [2] concerns HBV replication in Hep38.7-Tet cells. The series is described as follows: In vitro anti-HBV assay: inhibition of HBV replication (HBV DNA in culture supernatant, real-time PCR). Type of series: cell-based, Hepatitis B virus. The conditions noted are these: for EC50: Hepatitis B virus, 144 h, 6 days treatment, read-out: EC50: the concentration of 50% inhibition for HBV DNA in Hep38.7-Tet cells supernatant. Here is the method:
as §1
Hep38.7-Tet cells were cultured with DMEM/F-12/GlutaMAX supplemented with 10% fetal bovine serum, and 10 mM HEPES, 200 unit/mL penicillin, 200 µg/mL streptomycin, 5 µg/mL insulin, and 400 ng/mL tetracycline were added at 37 °C in 5% CO2. Tetracycline was removed when inducing HBV replication. Three days after seeding the cells, the cells were treated with or without compounds for 6 days and the culture supernatants were recovered to quantify HBV DNA using the primers 5′-[…]-3′, 5′-[…]-3′, and a probe 5′-FAM-[…]-TAMRA-3′ by real-time fluorescence quantitative PCR, as described.

Series [3] can be described thus: Pharmacokinetic experiment after oral administration in rats. Conditions: for MRT last: read-out: MRT0-last. The class given is in vivo, SD rats. Here is the method: In order to explore the metabolism and bioavailability of prodrug in vivo after oral administration, the main pharmacokinetic parameters were tested. After oral administration of N6 and NVR 3-778 to the two groups of rats, we detected their plasma concentration, respectively. […] The experimental results confirmed that N6 had longer half-life and lower maximum concentration in vivo than NVR 3-778. In addition, N6 was completely transformed into NVR 3-778 in vivo, and both had favorable bioavailability. Compared with NVR3-778, N6 can release drugs more slowly, which can improve the narrow therapeutic window of NVR3-778 to some extent.
Six male SD rats were randomly divided into two groups (administered with N6 and NVR 3-778, respectively). The rats were fasted for 12 h before administration and had free access to water. Animal feed was given 4 h after administration. Compounds N6 and NVR 3-778 were both administered orally at a dose of 10 mg/kg. The corresponding doses of compounds were dissolved in DMSO/PEG400/water (3%/60%/37%, V/V/V) mixed solution to prepare compound oral solutions, respectively, which were filtered through the […]. After intragastric administration, blood was obtained by jugular vein puncture (blood point: before administration and 0.25 h, 0.5 h, 1 h, 2 h, 4 h, 6 h, 10 h, and 24 h after administration). Then 0.25 mL whole blood was collected from each rat at each time point, adding EDTA-K2 for anticoagulation. After collection, the plasma was centrifuged within 1 h (centrifugal condition: 8000 rpm, 5 min, 8 °C). Plasma samples were stored in a refrigerator before analysis. After the experiment, all rats were executed according to the regulations of the Experimental Animal Ethics Committee.

A short description of series [4]: Plasma stability at 4 °C. The class given is in vitro ADME. Conditions: rat plasma, 2 µM; for Plasma (4 °C) Residual: after 2 h. Here is the method: (§3) In order to verify the stability of prodrug in vitro, the stability of NVR 3-778 and prodrug N6 in plasma at 4 °C and whole blood at 37 °C was tested by the LC-MS/MS and characterization of their stability by peak area. […] A total of 1 mL of rat plasma was placed in ice water at 4 °C and 1 mL of rat whole blood was placed in a water bath at 37 °C for use, respectively. DMSO solution with compound concentration of 1 mM was prepared, and then 10 µL compound solution was added to 90 μL 45% methanol aqueous solution to obtain a quantitative solution with a concentration of 100 µM. A 2 µL compound solution was added to 98 µL 4 °C plasma and 37 °C whole blood, and three portions were prepared to reach the final concentration of 2 µM, respectively. After incubation for two hours, 400 µL termination solution was added. The samples were centrifuged at 4000 rpm for 10 min, and the supernatant was extracted. A total of 100 µL supernatant was mixed with 200 µL ultrapure water and fully shaken for 10 min. The absorption peak area (A) of the sample to be tested was determined by HPLC.

Series [5] in a line: Whole blood stability at 37 °C. Type of series: in vitro ADME. The conditions noted are these: rat whole blood, 2 µM; for Whole Blood (37 °C) Residual: after 2 h. Here is the method: as §3
The nature of series [6]: Water solubility test in phosphate buffers (HPLC). The class given is physicochemical. Conditions: for solubility at 1 h: aqueous buffer. Here is the method: The compound was dissolved in DMSO to prepare the mother liquor with a concentration of 10 mg/mL, and then 10 µL mother liquor was added to 1 mL phosphate buffer with different pH (pH = 2.0, 7.0, and 7.4). The solution was oscillated for 2 h at 3000 rpm of the vortex oscillator, and the precipitation of compounds was observed visually. The standard curve can be established by increasing the concentration of mother liquor until turbidity appears. The peak area (A) of different concentrations (c) was determined by HPLC. The standard curve was established with the concentration and peak area as abscissa and ordinate, respectively, and the standard curve equation A = kc + b was calculated. The standard curve of NVR 3-778 concentration–peak area was established by measuring the peak area at five concentrations of 1000, 200, 40, 8.0, and 1.6 µg/mL. The standard curve equation was A = 35,268c + 80,359 with R^2 = 0.9999. By measuring the peak area at 4000 µg/mL, 1000 µg/mL, 200 µg/mL, 40 µg/mL, and 8.0 µg/mL, the standard curve of N6 concentration–peak area was established: A = 16,303c + 714,762, R^2 = 0.999. Since the solubility of N6 in phosphate buffer solution (pH = 7.0, 7.4) had exceeded the detector range, the saturated solution of N6 was diluted 10 times for testing. On this basis, the saturated solution (pH = 2.0, 7.0, and 7.4) of phosphate buffer at different pH values was prepared and fully oscillated for 1 h before filtration. Finally, the absorption peak area of the sample at different pH phosphate buffer (pH = 2.0, 7.0, and 7.4) was determined (measured twice). According to the standard curve equation, the corresponding concentration was calculated, which was the solubility of the compound.

Series [7] deals with Hep38.7-Tet cells. Put plainly: Cytotoxicity assay (WST, Cell Counting Kit-8). Type of series: cell-based. Here is the method:
as §1, §2

For series [8], the system named is HepG2.2.15 cell line. Conditions: read-out: EC50, antiviral activity; cited from earlier work.
Details of series [9]: method as in PMID 35268440. The conditions noted are these: pH = 2.0 ref 16; cited from earlier work.
Where [10] appears, read: male, SD, analyte N6 in plasma after oral N6, 10 mg/kg (18.8 nmol/kg), rat.
The mark [11] stands for this setting: male, SD, plasma, 10 mg/kg, analyte NVR 3-778 after oral NVR 3-778, rat.

Each structure is given as a SMILES string. Values after ≈ are worked out from the molar mass of the structure shown. Structures can show the parent of a compound that is named as a salt. Where two headings read alike, the source gives them in different places.

In the case of `O=C(Nc1cc(F)c(F)c(F)c1)c1ccc(F)c(S(=O)(=O)N2CCC(OP(=O)(O)O)CC2)c1` (as salt: phosphate) [N5, 1-((2-Fluoro-5-((3,4,5-trifluorophenyl)carbamoyl)phenyl)sulfonyl)piperidin-4-yl Dihydrogen Phosphate], the melting point is 162 to 164 °C.
On to `O=C(Nc1cc(F)c(F)c(F)c1)c1ccc(F)c(S(=O)(=O)N2CCC(OP(=O)(O)O)CC2)c1` [N5, 1-((2-Fluoro-5-((3,4,5-trifluorophenyl)carbamoyl)phenyl)sulfonyl)piperidin-4-yl Dihydrogen Phosphate], for which the CC50 in [1] stood at 13700 ± 1450 nM. Also, in series [2], the “SI: selectivity index, the ratio of CC50/EC50” value was 33 and the EC50 came to 420 ± 69 nM.
Consider `O=C(O)CCC(=O)OC1CCN(S(=O)(=O)c2cc(C(=O)Nc3cc(F)c(F)c(F)c3)ccc2F)CC1` [N6, 4-((1-((2-fluoro-5-((3,4,5-trifluorophenyl)carbamoyl)phenyl)sulfonyl)piperidin-4-yl)oxy)-4-oxobutanoic acid], for which the melting point fell in the range of 138 to 140 °C. The Tlast in series [3] (analyte N6 in plasma after oral N6, 10 mg/kg (18.8 nmol/kg), rat) is 1.00 h. Besides, in [3] (setting [10]), the AUC(0-t) was 8.13 ± 1.5 ng·h/mL, the Cmax was 14.7 ± 1.31 ng/mL, the time to peak (Tmax) came out at 0.25 h and the MRT last amounted to 0.487 h. For the same compound, in [3] (rats, oral N6 10 mg/kg), the “time for complete conversion of N6 into NVR 3-778” value was no more than 2 h. Further, in series [4], the “Plasma (4 °C) 0 h (peak area)” value came to 0.88 ± 0.052, the “Plasma (4 °C) 2 h (peak area)” value is 0.89 ± 0.016 and the “Plasma (4 °C) Residual” value is 101%. Besides, the CC50 in [1] was 12600 ± 1050 nM. For the same compound, in [5], the “Whole Blood (37 °C) 0 h (peak area)” value was 0.65 ± 0.048, the “Whole Blood (37 °C) 2 h (peak area)” value is reported as 0.70 ± 0.026 and the “Whole Blood (37 °C) Residual” value is 108%. Further, the solubility at 1 h in [6] (phosphate buffer pH = 2.0) came out at 695 µg/mL (≈ 1310 µM). The compound also came in with a solubility at 1 h in series [6] (phosphate buffer pH = 7.0) of 7500 µg/mL (≈ 14100 µM). For the same compound, the solubility at 1 h in series [6] (phosphate buffer pH = 7.4) was 4420 µg/mL (≈ 8290 µM). Besides, the “water solubility compared with NVR 3-778” value in series [6] (pH = 2) is reported as “more than 180 times”. Also, the “water solubility compared with NVR 3-778” value in [6] (pH = 7) is greater than 310 times. Besides, the “water solubility compared with NVR 3-778” value in [6] (pH = 7.4) is greater than 900 times. In series [2], the “SI: selectivity index, the ratio of CC50/EC50” value is 36 and the EC50 was determined as 350 ± 48 nM.
Consider `O=C(O)CCCC(=O)OC1CCN(S(=O)(=O)c2cc(C(=O)Nc3cc(F)c(F)c(F)c3)ccc2F)CC1` [N7, 5-((1-((2-fluoro-5-((3,4,5-trifluorophenyl)carbamoyl)phenyl)sulfonyl)piperidin-4-yl)oxy)-5-oxopentanoic acid], for which the melting point lay within 135 to 137 °C. Moreover, the CC50 in series [1] came to 13000 ± 1740 nM. In series [2], the “SI: selectivity index, the ratio of CC50/EC50” value worked out at 46 and the EC50 stood at 280 ± 24 nM.
Turning to `O=C(O)CCCCC(=O)OC1CCN(S(=O)(=O)c2cc(C(=O)Nc3cc(F)c(F)c(F)c3)ccc2F)CC1` [N8, 6-((1-((2-fluoro-5-((3,4,5-trifluorophenyl)carbamoyl)phenyl)sulfonyl)piperidin-4-yl)oxy)-6-oxohexanoic acid], the melting point lay in the range of 132 to 134 °C. Further, the “reduction of toxicity compared with NVR 3-778” value in series [7] (CC50 in Hep38.7-Tet cells) is given as “at least 18 fold”. The CC50 in series [1] was greater than 256000 nM. Also, in [2], the “SI: selectivity index, the ratio of CC50/EC50” value is recorded as greater than 731 and the EC50 worked out at 350 ± 32 nM.
Consider `O=C(Nc1cc(F)c(F)c(F)c1)c1ccc(F)c(S(=O)(=O)N2CCC(O)CC2)c1` [NVR 3-778, 4-Fluoro-3-((4-hydroxypiperidin-1-yl)sulfonyl)-N-(3,4,5-trifluorophenyl)benzamide], for which the EC50 in [8] is 400 nM. This compound also returned a Tlast in [3] (analyte NVR 3-778 after oral NVR 3-778, 10 mg/kg (23.1 nmol/kg), rat) of 10.0 h. In addition, in series [3] (setting [11]), the AUC(0-inf) is 3940 ± 948 ng·h/mL, the exposure AUC(0-t) worked out at 3890 ± 948 ng·h/mL, the Cmax was found to be 1160 ± 261 ng/mL and the Tmax is 0.833 ± 0.289 h. In addition, in series [3] (setting [11]), the MRT last came to 2.67 ± 0.106 h. Moreover, the MRT inf in [3] (male, SD, plasma, 10 mg/kg, analyte NVR 3-778 after oral NVR 3-778, rat, read-out: MRT0-inf) was found to be 2.78 ± 0.144 h. For the same compound, in series [3] (male, SD, plasma, analyte NVR 3-778 after oral NVR 3-778, 10 mg/kg (23.1 nmol/kg), rat), the half-life was 1.4 ± 0.25 h. Besides, in series [4], the “Plasma (4 °C) 0 h (peak area)” value was 0.12 ± 0.0078, the “Plasma (4 °C) 2 h (peak area)” value is 0.10 ± 0.0066 and the “Plasma (4 °C) Residual” value came out at 85%. In addition, the CC50 in series [7] (WST method (CCK-8), read-out: CC50: the concentration that kills 50% of Hep38.7-Tet cells) worked out at 13600 ± 210 nM. The CC50 in series [1] came out at 12600 ± 210 nM. Besides, in series [5], the “Whole Blood (37 °C) 0 h (peak area)” value turned out to be 0.18 ± 0.016, the “Whole Blood (37 °C) 2 h (peak area)” value amounted to 0.16 ± 0.0026 and the “Whole Blood (37 °C) Residual” value stood at 91%. This compound returned a solubility at 1 h in [6] (phosphate buffer pH = 2.0) of 3.82 µg/mL (≈ 8.83 µM). The compound also registered a solubility at 1 h in [6] (phosphate buffer pH = 7.0) of 24 µg/mL (≈ 55.6 µM). In series [6] (phosphate buffer pH = 7.4), the solubility at 1 h came out at 4.84 µg/mL (≈ 11.2 µM). Besides, in series [2], the “SI: selectivity index, the ratio of CC50/EC50” value came out at 36 and the EC50 was 380 ± 47 nM. Besides, in series [9], the water solubility is 3 µg/mL (≈ 6.94 µM).
